Test results published in PubChem BioAssay (NCI).
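Protocol summary: plate cells (96-well), add compound at 5 concentrations, incubate 48 h, interpolate endpoints linearly. TGI: total growth inhibition.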

Experiments:
Experiment in all cases: NCI tumour cell line growth inhibition, 48 h
TK-10 renal = test system: TK-10 renal
UACC-62 melanoma = test system: UACC-62 melanoma
U251 CNS = test system: U251 CNS
NCI-H23 lung = test system: NCI-H23 lung
SW-620 colon = test system: SW-620 colon
SNB-78 CNS = test system: SNB-78 CNS
NCI-H522 lung = test system: NCI-H522 lung
DMS 273 small cell lung = test system: DMS 273 small cell lung
SF-295 CNS = test system: SF-295 CNS
SF-539 CNS = test system: SF-539 CNS
UO-31 renal = test system: UO-31 renal
SK-MEL-2 melanoma = test system: SK-MEL-2 melanoma
HCT-116 colon = test system: HCT-116 colon
A498 renal = test system: A498 renal
EKVX NSCLC = test system: EKVX NSCLC
SF-268 CNS = test system: SF-268 CNS
SNB-75 CNS = test system: SNB-75 CNS
MALME-3M melanoma = test system: MALME-3M melanoma
IGROV1 ovarian = test system: IGROV1 ovarian
K-562 leukemia = test system: K-562 leukemia
SK-OV-3 ovarian = test system: SK-OV-3 ovarian
XF 498 CNS = test system: XF 498 CNS
RXF 393 renal = test system: RXF 393 renal
MOLT-4 leukemia = test system: MOLT-4 leukemia
NCI-H226 lung = test system: NCI-H226 lung
HCT-15 colon = test system: HCT-15 colon
DLD-1 colon = test system: DLD-1 colon
HL-60(TB) leukemia = test system: HL-60(TB) leukemia
M14 melanoma = test system: M14 melanoma
LOX IMVI melanoma = test system: LOX IMVI melanoma
RXF-631 renal = test system: RXF-631 renal
SN12C renal = test system: SN12C renal
A549 NSCLC = test system: A549 NSCLC
OVCAR-3 ovarian = test system: OVCAR-3 ovarian
SNB-19 CNS = test system: SNB-19 CNS
ACHN renal = test system: ACHN renal
M19-MEL melanoma = test system: M19-MEL melanoma
KM12 colon = test system: KM12 colon
CAKI-1 renal = test system: CAKI-1 renal
786-0 renal = test system: 786-0 renal
HT29 colon = test system: HT29 colon
CCRF-CEM leukemia = test system: CCRF-CEM leukemia
LXFL 529 NSCLC = test system: LXFL 529 NSCLC
DMS 114 small cell lung = test system: DMS 114 small cell lung
HCC-2998 colon = test system: HCC-2998 colon
COLO 205 colon = test system: COLO 205 colon
SK-MEL-28 melanoma = test system: SK-MEL-28 melanoma
HOP-62 NSCLC = test system: HOP-62 NSCLC
KM20L2 colon = test system: KM20L2 colon
NCI-H460 lung = test system: NCI-H460 lung
RPMI-8226 leukemia = test system: RPMI-8226 leukemia
UACC-257 melanoma = test system: UACC-257 melanoma
HOP-18 NSCLC = test system: HOP-18 NSCLC
OVCAR-4 ovarian = test system: OVCAR-4 ovarian
OVCAR-5 ovarian = test system: OVCAR-5 ovarian
HOP-92 NSCLC = test system: HOP-92 NSCLC
SR leukemia = test system: SR leukemia
SK-MEL-5 melanoma = test system: SK-MEL-5 melanoma
OVCAR-8 ovarian = test system: OVCAR-8 ovarian

Measured: TGI

Cc1cc(C)c(C(=O)OC(c2ccccc2)C(c2ccccc2)N2CCOCC2)c(C)c1 (centres undefined)
85.3 µM: RPMI-8226 leukemia
not listed: OVCAR-4 ovarian | OVCAR-5 ovarian | HOP-92 NSCLC | SR leukemia | SK-MEL-5 melanoma | OVCAR-8 ovarian
> 100 µM: all other assays above

Cc1nc(-c2nc([N+](=O)[O-])c([N+](=O)[O-])[nH]2)cs1
not listed: HCT-15 colon | 786-0 renal | HOP-18 NSCLC | OVCAR-8 ovarian
> 100 µM: all other assays above

COC1=C(OC)CCC(/C(C#N)=C/c2ccc(OC)c(OC)c2)=C1
70.5 µM: NCI-H522 lung
43 µM: SNB-75 CNS
98 µM: TK-10 renal
91.3 µM: SK-OV-3 ovarian
92.9 µM: RXF 393 renal
86.9 µM: HOP-62 NSCLC
not listed: EKVX NSCLC | MALME-3M melanoma | XF 498 CNS | HL-60(TB) leukemia | SNB-19 CNS
> 100 µM: all other assays above

COc1cc([C@H]2Oc3c(c(O)cc4oc(-c5ccccc5)cc(=O)c34)O[C@@H]2CO)ccc1O
62.7 µM: RXF-631 renal
87.6 µM: HOP-92 NSCLC
36.2 µM: HL-60(TB) leukemia
57.6 µM: SK-MEL-2 melanoma
36.7 µM: SR leukemia
32.5 µM: NCI-H460 lung
25 µM: DMS 273 small cell lung
56.4 µM: DLD-1 colon
23.7 µM: CCRF-CEM leukemia
38.5 µM: M14 melanoma
83.4 µM: MALME-3M melanoma
not listed: TK-10 renal | U251 CNS | SW-620 colon | SF-295 CNS | EKVX NSCLC | RXF 393 renal | MOLT-4 leukemia | HCT-15 colon | LOX IMVI melanoma | A549 NSCLC | OVCAR-3 ovarian | SNB-19 CNS | ACHN renal | KM12 colon | HT29 colon | KM20L2 colon | RPMI-8226 leukemia | UACC-257 melanoma | HOP-18 NSCLC | OVCAR-5 ovarian | SK-MEL-5 melanoma | OVCAR-8 ovarian
> 100 µM: all other assays above
